Results from the NIST ThermoML archive (doi:10.1021/je900716q).
± gives the expanded uncertainty stated by the source.

Experiments:
[1] = 101.33 kPa, Liquid, Pycnometric method
[2] = xn = mol fraction of the nth substance listed; settings: Liquid, measurement of pressure, x2 = 0

| Structure (SMILES) | mass density ([1]; 300.71 K) | mass density ([1]; 303.35 K) | mass density ([1]; 304.95 K) | mass density ([1]; 307.31 K) | mass density ([1]; 310.81 K) | mass density ([1]; 314.35 K) | binary diffusion coefficient ([2]; 303.15 K) | binary diffusion coefficient ([2]; 313.15 K) | binary diffusion coefficient ([2]; 323.15 K) | binary diffusion coefficient ([2]; 333.15 K) | binary diffusion coefficient ([2]; 343.15 K) | binary diffusion coefficient ([2]; 353.15 K) |
| --- | --- | --- | --- | --- | --- | --- | --- | --- | --- | --- | --- | --- |
| C[n+]1ccn(CCO)c1.F[B-](F)(F)F [1-(2-hydroxyethyl)-3-methylimidazolium tetrafluoroborate] | 1384 ± 1 kg/m3 | 1380 ± 1 kg/m3 | 1379 ± 1 kg/m3 | 1376 ± 1 kg/m3 | 1373 ± 1 kg/m3 | 1369 ± 1 kg/m3 |  |  |  |  |  |  |
| C[n+]1ccn(CCO)c1.F[B-](F)(F)F [1-(2-hydroxyethyl)-3-methylimidazolium tetrafluoroborate] + O=C=O |  |  |  |  |  |  | 1.4e-08 m2/s | 2.09e-08 m2/s | 3.94e-08 m2/s | 4.65e-08 m2/s | 5.71e-08 m2/s | 7.16e-08 m2/s |
| C[n+]1ccn(CCO)c1.F[B-](F)(F)F [1-(2-hydroxyethyl)-3-methylimidazolium tetrafluoroborate] + S |  |  |  |  |  |  | 1.79e-08 m2/s | 2.15e-08 m2/s | 2.76e-08 m2/s | 3.24e-08 m2/s | 3.8e-08 m2/s | 4.41e-08 m2/s |
